According to patent publication EP1038880B1, “Androstanes and pregnanes for allosteric modulation of GABA receptor” (priority 1994, dated 1995):

Columns and labels:
[1] = tested on: N.I.H. Swiss-Webster mice; experiment: Light/dark transition test; type: in vivo; details: IP, 10 min test, vs control, Dunnett's t-test (Fig. 8)
Experimental: Male N.I.H. Swiss-Webster mice (Harlan, Harlan, Indianapolis, IN) weighing 15-20 g were housed four per cage in polyethylene cages with sawdust bedding. The colony room was environmentally controlled (22°C) with a hr light/dark cycle (0600-1800hr). Food and water were available ad libitum, except during testing. The experiments were run from 0700-1500 hr and groups were counterbalanced for time of day effects. Mice were only administered drug or vehicle once.
The apparatus included two 2-compartment automated test chambers (Model RXYZCM16, Omnitech Electronics, Columbus, OH). The open compartment was connected to the enclosed compartment via a 7.5 × 7.5 cm passageway. The open compartment was brightly lit using a 200 W incandescent light bulb. The experimental room was kept dark. Interruptions of the infrared beams in either chamber were automatically recorded by being linked to a computer through a Digiscan Analyzer (Omnitech and the data was analyzed using the Integrated Lab Animal Monitoring System (Omnitech Electronics). N.IH. Swiss-Webster mice were administered vehicle or test drug intraperiotoneally (IP),10 min later they were placed in the center of the lit compartment. The number of transitions between the lit and dark chambers, total activity in the lit chamber and the time spent in the lit chamber were measured during a 10 min test period.

[2] = tested on: Bovine Uteral Progesterone Receptors; experiment: Inhibition of 3H-progesterone binding, uterus cytosol; details: competitor 10^-6M; 3H-progesterone 0.15 nM
Outline: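 Rat uterus cytosol was incubated with 0.15 nM ^3H-progesterone plus test compounds. Values are percent inhibition of specific binding versus a compound-free control incubation.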

[3] = tested on: N.I.H. Swiss-Webster mice; experiment: Elevated plus-maze; type: in vivo; details: 5 min test, ten minutes after injection (Fig. 9A)
From the text: The theoretical basis for the elevated plus-maze test is similar to that of the light/dark transition test. […] The apparatus consists of two open-arms and two enclosed-arms. The elevated plus-maze test allows for two measures of anxiety, the number of entries into the open-arms and the time spent on the open-arms, both expressed as a percentage of the total number of entries and time spent in/on both the open-arms and enclosed-arms.
Male N.LH. Swiss-Webster mice (Harlan, Indianapolis, IN) weighing 15-20 g were housed four per cage in polyethylene cages with sawdust bedding. The colony mom was environmentally controlled (22°C) with a 12^- hr light/dark cycle (0600-1800 hr). Food and water were available ad libitum, except during testing. The experiments were run from 0700-1500 hr and groups were counterbalance for time of day effects. Mice were only administered drug or vehicle once.
The apparatus included two open arms perpendicular to two enclosed arms elevated 50 cm from the floor. Each arm was 50 cm long and the walls of the enclosed arms were 40 cm tall. The maze was made completely of black plexiglass. Incandescent 200 W light bulbs were above each of the open arms to produce a strong contrast between the open arms and the enclosed arms.
Ten minutes after an injection, the N.I.H. Swiss-Webster mice were placed in the center of the plus-maze facing an open arm. During the 5 min test period, the number of entries onto the open arms and the enclosed arms, and the time spent in the open arms and enclosed arms were measured. All four paws had to be within an arm for the dependent variable to be measured. Therefore, the time spent in the center of the maze is not counted, so the total time spent in the open arms and the enclosed arms may not equal 5 min.

(+)bicuculline = experiment: Anticonvulsant test against (+)bicuculline; type: in vivo, mice; details: Mus musculus, read-out: ED50 BIC
Experimental: The anticonvulsant tests are similar to that described above. […] The number of animals with tonic and/or clonic convulsions was recorded. In the maximal electroshock test, 50 mA of current at 60 Hz was delivered through corneal electrodes for 200 msec to induce tonic seizure. The ability of compounds to abolish the tonic component was defined as the endpoint. General CNS depression potential was determined by a rotorod test 10 minutes after the injection of compounds where the number of mice staying on a rotating (6 rpm) rod for 1 minute in one of the three trials was determined. […] Table 7. Anticonvulsant Activity of Exemplified Neuroactive Steroids and those of Selected Clinically Useful Anticonvulsants in Mice

[4] = target: T1, Hippocampal Mineralocorticoid Receptors (Rattus norvegicus, UniProt P22199); experiment: Inhibition of 3H-aldosterone binding, brain cytosol; set-up: species or system rats; details: competitor 10^-6M; 3 nM 3H-aldosterone, RU28362 0.5 µM
T1 construct: To isolate the mineralocorticoid receptor, brain cytosol fractions were prepared; from tissue; host or cells: rat brain (hippocampal) cytosol
T1 sequence (P22199 1-981): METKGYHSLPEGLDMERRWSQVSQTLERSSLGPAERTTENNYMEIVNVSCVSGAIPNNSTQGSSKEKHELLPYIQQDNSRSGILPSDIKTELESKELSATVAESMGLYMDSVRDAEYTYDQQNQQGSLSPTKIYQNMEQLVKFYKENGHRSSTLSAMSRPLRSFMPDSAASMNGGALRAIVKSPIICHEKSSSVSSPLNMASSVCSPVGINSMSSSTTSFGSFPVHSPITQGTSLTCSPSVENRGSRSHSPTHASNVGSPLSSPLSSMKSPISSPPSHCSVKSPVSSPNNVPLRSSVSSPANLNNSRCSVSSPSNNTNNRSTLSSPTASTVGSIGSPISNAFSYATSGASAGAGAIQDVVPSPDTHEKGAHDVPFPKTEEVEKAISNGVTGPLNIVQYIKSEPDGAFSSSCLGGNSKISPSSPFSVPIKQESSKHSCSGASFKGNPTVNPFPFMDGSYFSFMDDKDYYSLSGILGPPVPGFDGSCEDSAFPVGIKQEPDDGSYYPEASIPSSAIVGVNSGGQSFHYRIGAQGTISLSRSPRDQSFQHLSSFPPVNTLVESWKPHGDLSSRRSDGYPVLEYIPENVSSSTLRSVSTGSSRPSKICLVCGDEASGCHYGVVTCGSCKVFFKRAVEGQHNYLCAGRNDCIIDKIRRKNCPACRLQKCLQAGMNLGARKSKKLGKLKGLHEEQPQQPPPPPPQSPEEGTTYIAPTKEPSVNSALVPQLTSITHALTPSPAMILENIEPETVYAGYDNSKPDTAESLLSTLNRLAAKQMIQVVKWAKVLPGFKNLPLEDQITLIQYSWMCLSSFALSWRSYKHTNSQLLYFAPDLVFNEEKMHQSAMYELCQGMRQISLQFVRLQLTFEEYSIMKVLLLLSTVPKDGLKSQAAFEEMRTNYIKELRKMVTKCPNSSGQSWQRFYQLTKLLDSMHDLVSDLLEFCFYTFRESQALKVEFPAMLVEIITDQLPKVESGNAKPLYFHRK

CC(=O)[C@H]1CC[C@H]2[C@@H]3CC[C@H]4C[C@H](O)CC[C@]4(C)[C@H]3CC[C@]12C [3α-Hydroxy-5α-pregnan-20-one, 3α-hydroxy-5α-pregnan-20-one]
number of transitions between the dark box and the light box, in words [1]: significantly increased | % of Inhibition [2]: 14% | dose producing significant increase in entries into the open-arms [3]: 20 mg/kg | ED50 ((+)bicuculline): 12.3 mg/kg

C[C@]12CC[C@@H](O)C[C@@H]1CC[C@@H]1[C@@H]2CC[C@]2(C)[C@@H](C(=O)CO)CC[C@@H]12 [3α,21-dihydroxy-5α-pregnan-20-one]
% of Inhibition [2]: 13% | inhibition at 1 µM [4]: 76.7% | ED50 ((+)bicuculline): 17.8 mg/kg
